In the supplement of paper PMC10307832:

Columns and labels:
Dabrafenib = compound: CC(C)(C)c1nc(-c2cccc(NS(=O)(=O)c3c(F)cccc3F)c2F)c(-c2ccnc(N)n2)s1 [Dabrafenib]; test: relative viability (nuclei count vs DMSO), 5 days (fraction); higher = more cells survive
Procedure, shortened: (§1)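 Acceptance criteria were a control CV below 25% and at least one doubling per plate. Lung cancer cell lines in 1536-well plates got five library-drug doses (not always all listed) √10 apart by pinning and were left 5 days with no medium change. Viability divides treated-well nuclei by vehicle-well nuclei and is the median across plates. Nuclei were counted by MetaXpress from 4× Hoechst images.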

VX-702 = compound: NC(=O)c1ccc(N(C(N)=O)c2c(F)cccc2F)nc1-c1ccc(F)cc1F [VX-702]; test: as above
Procedure, shortened: as §1

| Cell Line | relative viability (Dabrafenib; 0.003 µM) | relative viability (Dabrafenib; 0.009487 µM) | relative viability (Dabrafenib; 0.03 µM) | relative viability (Dabrafenib; 0.09487 µM) | relative viability (Dabrafenib; 0.3 µM) | relative viability (VX-702; 0.02 µM) | relative viability (VX-702; 0.2 µM) | relative viability (VX-702; 0.6325 µM) | relative viability (VX-702; 2 µM) |
| --- | --- | --- | --- | --- | --- | --- | --- | --- | --- |
| NCI-H1437 | 0.939 | 0.971 | 1.02 | 0.971 | 1.02 | 0.995 | 0.973 | 1.06 | 1.15 |
| HCC-827 | 0.916 | 1.08 | 0.996 |  | 1.02 | 1.03 | 1.08 | 1.09 | 0.647 |
| HARA | 0.737 | 1 |  | 0.922 | 1.12 | 0.964 | 0.897 | 0.965 | 0.969 |
| NCI-H838 | 0.966 | 1.07 | 0.889 | 0.896 | 1.05 | 0.968 | 0.948 | 0.984 | 1.07 |
| LCLC-103H | 0.883 | 1.11 | 0.919 | 1.01 | 1.07 | 0.98 | 0.999 | 0.952 | 1.13 |
| NCI-H2085 | 0.846 | 1.06 | 1 | 0.999 | 1.09 | 1.06 | 1.05 | 1 | 0.99 |
| COR-L23 | 0.976 | 1 | 0.968 | 0.93 | 0.998 | 1.17 | 1.05 | 1.16 | 1.21 |
| NCI-H322M |  | 1.14 |  | 0.943 | 0.9 | 0.979 | 0.888 | 1.01 | 1.02 |
| NCI-H1915 | 1.03 | 1.04 | 0.823 | 0.523 | 0.579 | 1.08 | 1 | 1 | 1.05 |
| EPLC-272H | 0.509 | 1.01 | 0.971 | 0.785 | 0.964 | 1.03 | 0.827 | 1.02 | 1.01 |
| NCI-H1734 |  | 1.08 | 0.716 | 0.765 | 0.891 | 1.04 | 0.919 | 0.876 | 0.703 |
| NCI-H2342 | 0.864 | 0.988 | 0.856 | 1.06 | 1.1 | 0.987 | 1.07 | 0.903 | 1.09 |
| NCI-H2405 |  | 0.931 | 0.7 | 0.898 | 0.961 | 1.09 | 0.941 | 0.978 | 1.12 |
| LK-2 | 0.975 | 1.04 |  | 0.913 | 1.05 | 1.02 | 0.84 | 0.811 | 1.04 |
| NCI-H1666 | 1.01 | 0.943 | 1.03 | 0.984 | 1.01 | 0.968 | 0.854 | 0.972 | 0.75 |
| CAL-12T | 0.96 | 1.01 | 1.05 | 0.946 | 1.18 | 0.959 | 0.994 | 1.04 | 1.07 |
| NCI-H2347 |  | 1.07 | 0.877 | 0.811 | 0.89 | 1.05 | 1.1 | 1.04 | 1.01 |
| NCI-H1944 | 0.911 | 0.997 | 0.841 | 0.952 | 0.985 | 0.941 | 0.985 | 1.01 | 0.443 |
| A-427 |  | 0.983 | 0.849 | 0.797 | 1.03 | 0.985 | 0.964 | 1.04 | 0.754 |
